Where two headings read alike, the source gives them in different places.
Experiments:
[1] = system: fatty acid synthesis in corn seedling chloroplasts; experiment: [14C]acetate and [14C]pyruvate incorporation into fatty acids in isolated chloroplasts; assay type: biochemical, Corn (Z. mays L.); details: 10 minute assay time, mean of two experiments ± standard error
Description: Corn (Z. mays L., ‘B37×Oh43’) seeds were germinated in darkness for 96 hours in vermiculite in an incubation chamber maintained at 30° C., 80% RH. Seedlings were then transferred to a growth chamber with a 16 hour light (25° C.) and an 8 hour dark (20° C.) cycle, 90% relative humidity (RH). After greening 48 hours, seedlings were returned to the dark incubation chamber for 12 hours to deplete chloroplast starch reserves. Seedlings were harvested 6 days after planting. Pea (P. sativum L., ‘PI 9901-C’) seedlings were grown in vermiculite in a growth chamber with a 16 hour light (21° C.) and 8 hour dark (16° C.) cycle, 80% RH. Peas were harvested 10 to 13 days after planting. Black Mexican Sweet (BMS) corn suspension cultures were maintained in a supplemented Murashige-Skoog (MS) medium (C. E. Green, Hort. Sci., 12, 7-10 (1977)), and subcultured weekly by 20-fold dilution of the suspension culture into fresh medium.
Chloroplasts from corn and pea seedlings were isolated at 4° C. (K. Cline et al., J. Biol. Chem., 260, 3691-3696 (1985)). Seedlings (50 g of shoots) were homogenized in 200 ml buffer A (50 mM HEPES-NaOH pH 7.5, 330 mM sorbitol, 0.1% w/v BSA, 1 mM MgCl2, 1 mM MnCl2, 2 mM EDTA, 5 mM isoascorbate, 1.3 mM glutathione) in an omnimixer (five, 3-second bursts at full speed). The homogenate was filtered through six layers of cheesecloth and two layers of miracloth, and then centrifuged at 3000 g for 3 minutes with hand-braking. The pellet was gently resuspended in buffer A and layered onto a preformed linear Percoll gradient (50 mM HEPES-NaOH pH 7.5, 330 mM sorbitol, 1.9 mM isoascorbate, 1.08 mM glutathione, 0.1% w/v BSA, 50% Percoll) which was centrifuged at 3000 g for 20 minutes in a Sorvall HB-4 rotor. The lower band in the gradient, containing intact chloroplasts, was washed twice by gently resuspending it in 20 ml of buffer B (50 mM HEPES-NaOH, pH 7.5, and 330 mM sorbitol) followed by repelleting (3000 g, 5 minutes). The final pellet, consisting of intact chloroplasts, was resuspended in 2 to 3 ml of buffer B and stored on ice in the dark until use.
[^14C]acetate and [^14C]pyruvate were used as precursors to measure fatty acid biosynthesis in isolated chloroplasts (B. Liedvogel et al., Planta, 169, 481-489 (1986)). [^14C]acetate incorporation was assayed in a 0.5 ml-volume containing: 50 mM HEPES-NaOH (pH 7.5), 330 mM sorbitol, 5 mM KH2PO4, 10 mM NaHCO3, 1 mM MgCl2, 1 mM ATP, 0.1 mM CoA, 0.15 mM [^14C]acetate (3.33 mCi/mmol), and chloroplasts (20 to 50 μg chlorophyll). [^14C]pyruvate incorporation into fatty acids was assayed in the same medium except that it included 2 mM TPP, 1 mM NAD^+, 0.15 mM [^14C]-pyruvate (1.33 mCi/mmol), but no acetate. […] Aliquots (50 μl) were counted for radioactivity by liquid scintillation spectrometry.

[2] = system: control cell line 2167-9/2160-154; experiment: Callus growth on herbicide medium, control line; assay type: cell-based, maize; details: for IC50: read-out: Herbicide concentration inhibiting growth 50%
Description: A selection protocol to identify and isolate herbicide-tolerant maize cells was developed to minimize the adverse effects of high herbicide concentrations on somatic embryo development and plant regeneration capacity. The procedure involved exposing tissue to gradually increasing concentrations of herbicide beginning with a sethoxydim concentration representing 1/20th of lethal dose and doubling the herbicide concentration at approximately two-week intervals until the lethal dose (10 μM sethoxydim) was reached. In this way, the herbicide was allowed to take effect slowly with continuous selection pressure, thus permitting herbicide-tolerant cells to accumulate over time while not affecting the potential for plant regeneration.
Approximately 100 grams of vigorously growing, regenerable, friable, embryogenic maize callus tissue established from an F1 immature embryo resulting from the cross A188×B73 were transferred to agar-solidified maintenance medium (Armstrong and Green, Planta, 164, 207 (1985)) in petri plates containing 0.5 μM sethoxydim (BASF) (Parsippany, N.J.). This callus line was designated 2167-9/2160-154. Forty plates were prepared and five clumps of callus tissue weighing about 0.5 grams each were placed on each plate. The 0.5 μM sethoxydim concentration was chosen from growth inhibition studies to provide less than 10-20% growth inhibition during the first two weeks of herbicide exposure. After 14 days, 0.25-0.5 gram pieces of tissue showing vigorous growth rate and retention of embryogenic morphology (i.e., presence of somatic embryos) were subcultured on fresh medium containing 1.0 μM sethoxydim. Eighty plates containing five pieces of tissue per plate were prepared. For each subsequent transfer, all callus tissue showing growth and somatic embryo forming ability was placed on fresh media containing a two-fold increased sethoxydim concentration. Therefore, callus was transferred at two-week intervals to petri plates containing 0.5, 1.0, 2.0, 5.0 and 10.0 μM sethoxydim. During the course of the selection process, the total number of lines decreased as the herbicide-mediated growth inhibition became more intense. […] These lines were designated 2167-9/2160-154 S-1 and 2167-9/2160-154 S-2.
Tolerant cell line 2167-9/2160-154 S-2 (“S-2”) was characterized to evaluate: (1) the magnitude of sethoxydim tolerance; (2) cross-tolerance of haloxyfop; and (3) the biochemical basis for the tolerance. Callus tissue from S-2 that had been maintained on 10 μM sethoxydim was transferred to media containing up to 100 μM sethoxydim. One-half gram of S-2 tissue was plated on a 7 cm filter paper as a lawn overlaying 50 ml agar-solidified culture medium containing 0, 0.5, 1.0, 2.0, 5.0, 10.0, 50.0 and 100 μM sethoxydim, and cultured for two weeks. […]

[3] = system: tolerant cell line 2167-9/2160-154 S-2; experiment: Callus growth on herbicide medium, line S-2; assay type: cell-based, maize
Description: Tolerant cell line 2167-9/2160-154 S-2 (“S-2”) was characterized to evaluate: (1) the magnitude of sethoxydim tolerance; (2) cross-tolerance of haloxyfop; and (3) the biochemical basis for the tolerance. Callus tissue from S-2 that had been maintained on 10 μM sethoxydim was transferred to media containing up to 100 μM sethoxydim. One-half gram of S-2 tissue was plated on a 7 cm filter paper as a lawn overlaying 50 ml agar-solidified culture medium containing 0, 0.5, 1.0, 2.0, 5.0, 10.0, 50.0 and 100 μM sethoxydim, and cultured for two weeks. Control cell line 2167-9/2160-154 was plated similarly on medium containing the same levels of sethoxydim. The control cell line growth after two weeks was inhibited 50% at 1 μM sethoxydim.

CC(Oc1ccc(Oc2ncc(C(F)(F)F)cc2Cl)cc1)C(=O)O (stereo not drawn) [Haloxyfop, 2-[4-[[3-chloro-5-(trifluoromethyl)-2-pyridinyl]oxy]phenoxy]-propanoic acid]
% Inhibition of [14C]acetate incorporation into fatty acids ([1]; Haloxyfop 1 μM): 89%
% Inhibition of [14C]pyruvate incorporation into fatty acids ([1]; Haloxyfop 1 μM): 99%
IC50 ([2]; Zea mays, 336 h, control callus, growth after two weeks): 20 nM
IC50 ([3]; Zea mays, callus growth, read-out: Herbicide concentration inhibiting growth of S-2): 650 nM
Fold increase in tolerance of S-2 versus control callus line (growth) ([3]; callus growth): ~30 fold

CCCC(=NOCC)C1=C(O)CC(CC(C)SCC)CC1=O (stereo not drawn) [Sethoxydim, 2-[1-(ethoxyimino)-butyl]-5-[2-(ethylthio)propyl]-3-hydroxy-2-cyclohexen-1-one]
% Inhibition of [14C]acetate incorporation into fatty acids ([1]; Sethoxydim 10 μM): 90%
% Inhibition of [14C]pyruvate incorporation into fatty acids ([1]; Sethoxydim 10 μM): 98%
inhibition at 0.5 µM ([2]; Zea mays, 336 h, read-out: Growth inhibition): 10 to 20%
IC50 ([2]; Zea mays, 336 h): 1000 nM
Lethal dose for callus tissue ([2]; tissue culture selection protocol): 10 µM
Growth of S-2 callus ([3]; 100 μM sethoxydim, cultured two weeks): not inhibited
Fold increase in tolerance of S-2 versus control callus line (growth) ([3]; callus growth): at least 100 fold
